From patent publication US6750224B1, “Antibacterial optically pure benzoquinolizine carboxylic acids, processes, compositions and methods of treatment” (priority 1999, dated 2004)

Tests used:
[1] = tested on: S.aureus strain bearing Nor A efflux pump; format: cell-based; conditions: Nor A efflux pump strain vs strain devoid of efflux pump
Description: Using this set of MIC values, % loss in potency due to efflux was calculated for each of the fluoroquinolone in Table 5

[2] = Chemical stability under heating (HPLC); format: physicochemical
Description: The anhydride and hydrates were each introduced into a glass vial and maintained at 70° C. Thus the thermal decomposition with elapsed time was analysed by HPLC and the results thus obtained are described in Table 8

[3] = Equilibrium moisture content determination at several relative humidities; format: physicochemical; conditions: relative humidity 20% to 95%, Karl Fischer
Text: Silica (anhydrous) and three saturated solutions of electrolytes prepared by dissolving the respective salts in water were each introduced into different desiccators to control the inner relative humidity to a specific value as represented in the following Table 7. Then, the equilibrium moisture contents of S-(−)-9-fluoro-6,7-dihydro-8-(4-hydroxypiperidin-1-yl)-5-methyl-1-oxo-1H,5H-benzo[i,j]quinolizine-2-carboxylic acid anhydrate and S-(−)-9-fluoro-6,7-dihydro-8-(4-hydroxypiperidin-1-yl)-5-methyl-1-oxo-1H,5H-benzo[i,j]quinolizine-2-carboxylic acid 0.2 hydrate prepared in Examples 1 and 2 respectively were determined at several relative humidities.
Specifically, 1 g of the sample was spread on a pre-weighed petridish and the total weight was accurately measured, then both the samples were placed in each desiccator of Table 8 The dessicators were allowed to stand at normal temperature for at least 3 days and the weight was measured agingly over this period. The weight changes were tabulated. At the end of 3 days all samples were taken to be weighed. The moisture content of each sample was determined by Karl Fischer analysis. Equilibrium moisture content at each relative humidity is represented in FIG. 1 (anhydrate) and FIG. 2 (0.2 hydrate).

[4] = Phlebitis on repeated i.v. administration in rats; format: in vivo; conditions: doses double those of the sodium salt
Text: This feature would make S-(−)-9-fluoro-6,7-dihydro-8-(4-hydroxypiperidin-1-yl)-5-methyl-1-oxo-1H,5H- benzo[i,j]quinolizine-2-carboxylic acid arginine salt 0.25 H2O and S-(−)-9-fluoro-6,7-dihydro-8-[4-(hydroxy)-1-piperidin-1-yl)-5-methyl-1-oxo-1H,5H-benzo[i,j]quinolizine-2-carboxylic acid arginine salt 0.75 H2O suitable for long term i.v. administration which is commonly undertaken for critically ill patients or patients in intensive care unit.

Acinetobacter 3109 = assay: Effect of pH on potency of fluoroquinolones (MIC at pH 5.5 and 7.0); format: cell-based; conditions: MIC pH 7 vs pH 5.5
Text: (§1) The test method was in accordance with the standard NCCLS protocol employing test media adjusted at pH 5.5 and 7.0.

Ps. Aeruginosa = assay: as above; format: cell-based; conditions: MIC pH 7 vs pH 5.5
Text: as §1

P. mirabilis 37 = assay: as above; format: cell-based; conditions: MIC pH 7 vs pH 5.5
Text: as §1

E. coli 2015 = assay: as above; format: cell-based; conditions: MIC pH 7 vs pH 5.5
Text: as §1

E. faecalis = assay: as above; format: cell-based; conditions: MIC pH 7 vs pH 5.5
Text: as §1

Serratia marcescens 2702 = assay: as above; format: cell-based; conditions: MIC pH 7 vs pH 5.5
Text: as §1

S. aureus 1199-B = assay: as above; format: cell-based; conditions: MIC pH 7 vs pH 5.5
Text: as §1

P. vulgaris 66 = assay: as above; format: cell-based; conditions: MIC pH 7 vs pH 5.5
Text: as §1

E. coli 25922 = assay: as above; format: cell-based; conditions: MIC pH 7 vs pH 5.5
Text: as §1

Klebsiella 24037 = assay: as above; format: cell-based; conditions: MIC pH 7 vs pH 5.5
Text: as §1

P. rettgeri N 1764 = assay: as above; format: cell-based; conditions: MIC pH 7 vs pH 5.5
Text: as §1

S. aureus 25923 = assay: as above; format: cell-based; conditions: MIC pH 7 vs pH 5.5
Text: as §1

With `CCn1cc(C(=O)O)c(=O)c2cc(F)c(N3CCNCC3)cc21` [Norfloxacin] the “% loss in potency for S. aureus bearing Efflux pump” value (from here on “% loss in potency”) [1] was 97%.

In the case of `C[C@H]1CCc2c(N3CCC(O)CC3)c(F)cc3c(=O)c(C(=O)O)cn1c23.C[C@H]1CCc2c(N3CCC(O)CC3)c(F)cc3c(=O)c(C(=O)O)cn1c23.O` [Example 3, S-(−)-9-fluoro-6,7-dihydro-8-(4-hydroxypiperidin-1-yl)-5-methyl-1-oxo-1H,5H-benzo[i,j]quinolizine-2-carboxylic acid 0.5 hydrate], the “Thermal stability with elapsed time at 70° C.” value [2] is reported as 98.1% and the “chemical stability at 70° C., in words” value [2] is reported as “decompose with time”.

For `NC1CCN(c2c(F)cc3c(=O)c(C(=O)O)cn(C4CC4)c3c2Cl)C1` (stereo not drawn) [Clinafloxacin], the “% loss in potency” value [1] was 87.5%.

For `C[C@H]1CCc2c(N3CCC(O)CC3)c(F)cc3c(=O)c(C(=O)O)cn1c23.O` [Example 2, S-(−)-9-fluoro-6,7-dihydro-8-(4-hydroxypiperidin-1-yl)-5-methyl-1-oxo-1H,5H-benzo[i,j]quinolizine-2-carboxylic acid 0.2 hydrate], the “Thermal stability with elapsed time at 70° C.” value [2] was 98.7%, the “chemical stability at 70° C., in words” value [2] was “same degree of chemical stability as the anhydrate” and the equilibrium moisture content [3] was “around 1%”.

In the case of `COc1c(N2CCNC(C)C2)c(F)cc2c(=O)c(C(=O)O)cn(C3CC3)c12` (stereo not drawn) [Gatifloxacin], the “% loss in potency” value [1] is reported as 75%.

In the case of `C[C@H]1CCc2c(N3CCC(O)CC3)c(F)cc3c(=O)c(C(=O)O)cn1c23.N=C(N)NCCC[C@H](N)C(=O)O.O` [Example 7, S-(−)-9-fluoro-6,7-dihydro-8-(4-hydroxypiperidin-1-yl)-5-methyl-1-oxo-1H,5H-benzo[i,j]quinolizine-2-carboxylic acid, arginine salt 0.25 H2O], the phlebitis [4] is reported as “did not cause phlebitis”.

For `O=C(O)c1cn(C2CC2)c2cc(N3CCNCC3)c(F)cc2c1=O` [Ciprofloxacin], the “% change in potency at pH 5.5, loss (−)/gain (+)” value (from here on “% change … loss (−)/gain (+)”) (Acinetobacter 3109) was −97%, the “% change … loss (−)/gain (+)” value (Ps. Aeruginosa) was −87% and the “% change … loss (−)/gain (+)” value (P. mirabilis 37) was −96%. For the same compound, the “% change … loss (−)/gain (+)” value (E. coli 2015) was −94%, the “% change … loss (−)/gain (+)” value (E. faecalis) was −87.5% and the “% change … loss (−)/gain (+)” value (Serratia marcescens 2702) was −99%. The “% change … loss (−)/gain (+)” value (S. aureus 1199-B) was −75%, the “% change … loss (−)/gain (+)” value (P. vulgaris 66) was −96% and the “% change … loss (−)/gain (+)” value (E. coli 25922) was −97.5%. The “% change … loss (−)/gain (+)” value (Klebsiella 24037) was −97%, the “% change … loss (−)/gain (+)” value (P. rettgeri N 1764) was −94% and the “% change … loss (−)/gain (+)” value (S. aureus 25923) was −75%.
